In general, pIC50 refers to −log10 of the IC50, conventionally taken in molar units. One may read the IC90 as the point of the concentration-response curve where the effect stands at 90%.

pIC50: −log10 of the molar value. Some results are limits rather than exact numbers.

This assay concerns Plasmodium berghei. Put plainly: Luciferase/luciferin-expressing antifolate-resistant parasites were used to infect a culture of HepG2 cells that were pre-incubated with compounds. Infected hepatocytes emit light due to the luciferase reaction. Assay results are presented as the percent inhibition of light emission compared to control. […]. The format is functional. Conditions: sporozoite; for IC90: read-out: LUCIFERASE INFECTION ASSAY - IC90.

Setting [1] is: read-out: LUCIFERASE INFECTION ASSAY - IC50.

As for `c1cc(-c2cn3c(-c4ccc5c(c4)OCO5)cnc3cn2)cs1`, the IC90 is > 10.3 µM. Also, the pIC50 (PBLUC_HILL_SLOPE 1.82, PBLUC_R_SQUARED 0.105, read-out: LUCIFERASE INFECTION ASSAY - IC50) is < 4.99.
For `Cc1nc(N(C)Cc2c(C)nn(C3CCS(=O)(=O)C3)c2C)c2c(-c3ccccc3)csc2n1` (centres undefined), the 90% effect concentration (IC90) was > 10 µM. Besides, for the setting “HEPG2TOX_HILL_SLOPE 23.3, HEPG2TOX_R_SQUARED 0.0131, PBLUC_HILL_SLOPE 4.31, PBLUC_R_SQUARED 0.318, read-out: LUCIFERASE INFECTION ASSAY - IC50”, the pIC50 was 5.17.
Take `CN(C(=O)CSc1nnc(COc2ccccc2F)n1N)C1CCCCC1`: the IC90 worked out at 6.57 µM. Also, where the note is “HEPG2TOX_HILL_SLOPE 2.33, HEPG2TOX_R_SQUARED 0.96, PBLUC_HILL_SLOPE 2.14, PBLUC_R_SQUARED 0.67, read-out: LUCIFERASE INFECTION ASSAY - IC50”, the pIC50 is 5.63.
On to `Cc1cc(Cl)c(C)c(S(=O)(=O)N(C)C(C)c2ccc(S(N)(=O)=O)cc2)c1Cl` (centres undefined), for which the IC90 was > 10 µM. Further, under “HEPG2TOX_HILL_SLOPE 3.91, HEPG2TOX_R_SQUARED 0.817, PBLUC_HILL_SLOPE 1.91, PBLUC_R_SQUARED 0.506, read-out: LUCIFERASE INFECTION ASSAY - IC50”, the pIC50 was 5.16.
As to `O=C(Cc1csc(COc2ccc(Cl)cc2)n1)Nc1ccccc1O`, the IC90 was > 10 µM. Also, the pIC50 (PBLUC_HILL_SLOPE 11.8, PBLUC_R_SQUARED 0.113, read-out: LUCIFERASE INFECTION ASSAY - IC50) was 5.03.
In the case of `Cc1c(OCc2ccc([N+](=O)[O-])cc2)ccc2c1OC(C)(C)C=C2`, the IC90 was 6.1 µM. Also, the pIC50 under setting [1] was 6.18.
As for `O=C(c1cc2c(=O)n3ccccc3nc2s1)N(c1ccccn1)C1CCCCC1`, the IC90 is > 10 µM. Further, the pIC50 (PBLUC_HILL_SLOPE 9.6, PBLUC_R_SQUARED 0.179, read-out: LUCIFERASE INFECTION ASSAY - IC50) was 5.02.
Regarding `COc1ccc(CNC(=O)N(C)CCOc2ccc(OC)cc2)cc1`, the IC90 was > 10 µM. The pIC50 (FFLUC_HILL_SLOPE 0.273, FFLUC_R_SQUARED 0.253, HEPG2TOX_HILL_SLOPE 16.5, HEPG2TOX_R_SQUARED 0.443, PBLUC_HILL_SLOPE 9.82, PBLUC_R_SQUARED 0.776, read-out: LUCIFERASE INFECTION ASSAY - IC50) is 5.07.
With `COc1ccc(NC(=O)c2nnc(CSc3nc(C)cc(-c4ccccc4)n3)s2)cc1`, the 90% effect concentration (IC90) was 0.616 µM. Moreover, the pIC50 (HEPG2TOX_HILL_SLOPE 2.12, HEPG2TOX_R_SQUARED 0.961, PBLUC_HILL_SLOPE 18.1, PBLUC_R_SQUARED 0.668, read-out: LUCIFERASE INFECTION ASSAY - IC50) is 6.26.
Consider `Nc1ccc(-c2cn3c(-c4cccc(Cl)c4)cnc3cn2)cn1`, for which the IC90 was > 10.3 µM. Moreover, the pIC50 (PBLUC_HILL_SLOPE 1.1, PBLUC_R_SQUARED 0.459, read-out: LUCIFERASE INFECTION ASSAY - IC50) is 5.25.
In the case of `CN(Cc1nc2ccccc2s1)C(=O)c1cccc(C#N)c1`, the IC90 is > 10 µM. The pIC50 under setting [1] was < 5.00.
Consider `Cn1c(NCC2CC2)nc2cnc(-c3ccc4ccccc4c3)cc21`, for which the IC90 amounted to 2.07 µM. In addition, where the note is “FFLUC_HILL_SLOPE 1.05, FFLUC_R_SQUARED 0.583, HEPG2TOX_HILL_SLOPE 31.1, HEPG2TOX_R_SQUARED 0.421, PBLUC_HILL_SLOPE 0.605, PBLUC_R_SQUARED 0.735, read-out: LUCIFERASE INFECTION ASSAY - IC50”, the pIC50 was 7.26.
For the compound `c1nc(NCC23CC4CC(CC(C4)C2)C3)c2sccc2n1`, the IC90 was > 10 µM. The pIC50 under setting [1] was < 5.00.
For the compound `Cc1cc(C)c2cc(C(=O)Nc3ccc(N4CCN(C)CC4)nc3)[nH]c2c1`, the IC90 stood at 3.64 µM. The negative logarithm of the IC50 (pIC50) (HEPG2TOX_HILL_SLOPE 1.47, HEPG2TOX_R_SQUARED 0.9, PBLUC_HILL_SLOPE 16.4, PBLUC_R_SQUARED 0.482, read-out: LUCIFERASE INFECTION ASSAY - IC50) is 5.50.
As for `O=C(Nc1cccc2c[nH]nc12)c1ccc([N+](=O)[O-])s1`, the IC90 was 7.56 µM. For the same compound, the pIC50 (HEPG2TOX_HILL_SLOPE 0.563, HEPG2TOX_R_SQUARED 0.653, PBLUC_HILL_SLOPE 2.36, PBLUC_R_SQUARED 0.303, read-out: LUCIFERASE INFECTION ASSAY - IC50) was 5.53.
Regarding `CC(C)c1ccc(-c2ccc3nnc(-c4ccc(OCCCN(C)C)cc4)n3c2)cc1`, the IC90 is > 10 µM. The negative logarithm of the IC50 (pIC50) under setting [1] is < 5.00.
`CSc1nccc(-c2sc3scc(C)c3c2C)n1`: the IC90 is > 11.3 µM. The pIC50 under setting [1] was < 4.95.
Consider `Cc1sc2ncn(CC(=O)NC(c3ccc(F)cc3)c3cccs3)c(=O)c2c1-c1ccccc1` (centres undefined), for which the IC90 stood at 9.83 µM. The pIC50 (FFLUC_HILL_SLOPE 15.7, FFLUC_R_SQUARED 0.526, PBLUC_HILL_SLOPE 17, PBLUC_R_SQUARED 0.112, read-out: LUCIFERASE INFECTION ASSAY - IC50) is 5.06.
As to `O=C1COc2ccc(-c3cs/c(=N\c4cc(S(=O)(=O)N5CCOCC5)ccc4Cl)n3C3CC3)cc2N1`, the IC90 was > 10 µM. Further, the pIC50 (FFLUC_HILL_SLOPE 592, FFLUC_R_SQUARED 0.24, HEPG2TOX_HILL_SLOPE 8.86, HEPG2TOX_R_SQUARED 0.733, PBLUC_HILL_SLOPE 5.17, PBLUC_R_SQUARED 0.255, read-out: LUCIFERASE INFECTION ASSAY - IC50) was 5.09.
As for `COc1cc(-c2cnc3cnc(-c4ccc(C(=O)NCCN(C)C)cc4)cn23)ccc1O`, the concentration for an effect of 90% (IC90) was > 7.65 µM. Also, the pIC50 under setting [1] was < 5.12.
Regarding `CCOC(=O)c1c(C)[nH]c(C(=O)Nc2ccnn2Cc2ccc(Cl)cc2Cl)c1C`, the IC90 was > 10 µM. In addition, the pIC50 (PBLUC_HILL_SLOPE 1.6, PBLUC_R_SQUARED 0.586, read-out: LUCIFERASE INFECTION ASSAY - IC50) was 5.40.
As to `O=C1/C(=C\c2cccnc2)SC(=S)N1Cc1ccncc1`, the IC90 is > 10.5 µM. Moreover, for the setting “FFLUC_HILL_SLOPE 1.57, FFLUC_R_SQUARED 0.87, HEPG2TOX_HILL_SLOPE 6.45, HEPG2TOX_R_SQUARED 0.698, PBLUC_HILL_SLOPE 14.6, PBLUC_R_SQUARED 0.23, read-out: LUCIFERASE INFECTION ASSAY - IC50”, the pIC50 is 4.98.
Regarding `CC1CCc2sc(-c3nnc(SCC(=O)Nc4sccc4C(N)=O)o3)cc2C1` (centres undefined), the IC90 was determined as 9.89 µM. Under “PBLUC_HILL_SLOPE 4.8, PBLUC_R_SQUARED 0.154, read-out: LUCIFERASE INFECTION ASSAY - IC50”, the pIC50 was 5.20.
Consider `Cc1ccc(/C(C#N)=C/c2ccc3c(c2)OCO3)cc1`, for which the IC90 was > 12.5 µM. Also, for the setting “HEPG2TOX_HILL_SLOPE 2.41, HEPG2TOX_R_SQUARED 0.881, PBLUC_HILL_SLOPE 2.57, PBLUC_R_SQUARED 0.299, read-out: LUCIFERASE INFECTION ASSAY - IC50”, the pIC50 was 5.04.
Regarding `Oc1c(C(c2ccc(F)cc2)N2CCCCC2)cc(Cl)c2cccnc12` (centres undefined), the IC90 was > 10 µM. Also, the pIC50 (PBLUC_HILL_SLOPE 3.21, PBLUC_R_SQUARED 0.483, read-out: LUCIFERASE INFECTION ASSAY - IC50) was 5.21.
On to `O=C(Nc1ncc(Cc2ccc(F)c(F)c2)s1)c1ccc2nc[nH]c2c1`, for which the IC90 was > 10 µM. Besides, where the note is “HEPG2TOX_HILL_SLOPE 13.7, HEPG2TOX_R_SQUARED 0.959, PBLUC_HILL_SLOPE 2.28, PBLUC_R_SQUARED 0.72, read-out: LUCIFERASE INFECTION ASSAY - IC50”, the pIC50 was 5.36.
As for `O=C1C(=O)N(Cc2ccccc2Cl)c2ccc(F)cc21`, the IC90 is > 11.4 µM. For the same compound, under setting [1], the pIC50 was < 4.94.
Consider `CCCCCC(/C=N/Nc1nncc2ccccc12)=C\c1ccccc1`, for which the IC90 was 9.96 µM. Also, the pIC50 (PBLUC_HILL_SLOPE 4.26, PBLUC_R_SQUARED 0.663, read-out: LUCIFERASE INFECTION ASSAY - IC50) was 5.23.
As for `N=C1C(=S)N(c2ccc(Cl)c(Cl)c2)C(=O)N1c1ccc(OC(F)(F)F)cc1`, the IC90 is > 7.6 µM. In addition, the pIC50 (FFLUC_HILL_SLOPE 13.1, FFLUC_R_SQUARED 0.176, read-out: LUCIFERASE INFECTION ASSAY - IC50) is < 5.12.
`CCc1ccc2nc(NC(=O)c3nccnc3N)sc2c1`: the IC90 is > 10 µM. For the same compound, the pIC50 (HEPG2TOX_HILL_SLOPE 7.58, HEPG2TOX_R_SQUARED 0.761, PBLUC_HILL_SLOPE 15.5, PBLUC_R_SQUARED 0.446, read-out: LUCIFERASE INFECTION ASSAY - IC50) is 5.03.
On to `Cc1nc(NCc2ccc3c(c2)OCO3)c2c3c(sc2n1)CCCC3`, for which the IC90 is > 10 µM. In addition, the pIC50 (PBLUC_HILL_SLOPE 12.4, PBLUC_R_SQUARED 0.761, read-out: LUCIFERASE INFECTION ASSAY - IC50) is 5.05.
As to `NC(Cc1ccc(F)cc1)c1csc(Nc2cc(NCc3ccco3)ncn2)n1` (centres undefined), the IC90 was > 8.04 µM. Also, under setting [1], the pIC50 is < 5.09.
Turning to `COc1ccc(O)c(C=C(c2nc3ccccc3s2)c2nc3ccccc3s2)c1`, the IC90 was > 10 µM. Also, the pIC50 (FFLUC_HILL_SLOPE 21.2, FFLUC_R_SQUARED 0.491, read-out: LUCIFERASE INFECTION ASSAY - IC50) is < 5.00.
With `CSc1sc(C(=O)Sc2ccccc2)cc1S(=O)(=O)C(C)C`, the IC90 is > 8.86 µM. Further, the pIC50 under setting [1] was < 5.05.
For `CCCCNC(=O)c1c(NC(=O)c2cc(F)ccc2C)nc2ccccn12`, the IC90 was > 8.96 µM. In addition, for the setting “PBLUC_HILL_SLOPE 3.71, PBLUC_R_SQUARED 0.517, read-out: LUCIFERASE INFECTION ASSAY - IC50”, the pIC50 is 5.16.
For `Cc1cc(C)c(NC(=O)NCCCOCC(C)C)c(Cl)c1`, the IC90 is > 10 µM. The pIC50 under setting [1] is < 5.00.
The corresponding values for `CN(C)C(=O)Oc1ccc(Br)cc1C(=O)Nc1ccc(F)c(Cl)c1` are > 7.94 µM and < 5.10.

The values are drawn from ChEMBL document CHEMBL4483862, “Open-source discovery of chemical leads for next-generation chemoprotective antimalarials” (2018).
